From US20240398771A1, “TREATMENT OF SCLERODERMA AND RAYNAUD'S SYNDROME” (Aisa Pharma, Inc., priority 2023, published 2024)

Experiments:
participants with SSc-RP [1] = test: Average duration of weekly symptomatic RP attacks (minutes); type: in vivo, human; conditions: ITT Part A, Baseline RCS subgroup 1 (Table B-3, stratum not given)
Excerpt: (§1) The relevant metrics measured by this tool daily are: • Study medication • SSc-RP symptoms (Reporting an attack including duration of attack) • Severity of the attack considering all symptoms of the attack e.g. tingling, numbness, pain, color changes (VAS 0-10 cm scale) • Participant's location at the time of the attack (inside home/outside home) • Selecting symptoms experienced during the attack (tingling, numbness, pain, color changes, other) • Pain rating during the attack (11-point Likert scale) • The RCS based on how much difficulty participants had with Raynaud's today, how many attacks the participant had, and how long they lasted. Participants will also be asked to consider how much pain, numbness, or other symptoms the Raynaud's caused in fingers (including painful sores), and how much the Raynaud's alone affected the use of hands today (VAS 0-10 cm scale).
The absolute change in average duration of weekly RP attacks from baseline to the end of each dosing period was and will be a secondary outcome variable. The sponsor-developed participant-informed diary was and will be used to record data. Average duration of weekly RP attacks is defined as the total duration of RP attacks divided by total number of RP attacks within the last 7 days of each dosing period. Total duration of RP attacks during the last 7 days of screening period divided by the total number of RP attacks will be used as baseline for the analysis of all periods. The variable will be calculated similar to frequency data as before.

participants with SSc-RP [2] = test: Average severity (0-10) of weekly RP attacks, all attacks; type: in vivo, human; conditions: excluding outliers, ITT Part A
Excerpt: as §1
The absolute change in average severity of weekly RP attacks (VAS 0-10 cm scale) from baseline to the end of each Dosing Period was and will be a secondary outcome variable. The sponsor-developed participant-informed diary will be used to record data. Average severity of weekly RP attacks is defined as the total severity scores of RP attacks divided by total number of RP attacks within the last 7 days of each dosing period. Total severity scores of RP attacks during the last 7 days of screening period divided by the total number of RP attacks will be used as baseline for the analysis of all periods. The variable will be calculated similar to frequency data as before.

[3] = oral dosing; cited from earlier work
[4] = last 7 days of dosing period, listed as Cilnidipine 20 mg
[5] = last 7 days of dosing period, listed as Pooled Cilnidipine
[6] = last 7 days of screening period, listed as Cilnidipine 10 mg
[7] = last 7 days of screening period, listed as Cilnidipine 20 mg
[8] = last 7 days of screening period, listed as Pooled Cilnidipine
[9] = Cilnidipine 10 mg, baseline RCS subgroup 1 of 2
[10] = Cilnidipine 20 mg, baseline RCS subgroup 1 of 2
[11] = Pooled Cilnidipine 10 mg and Cilnidipine 10 mg + Tadalafil 5 mg, baseline RCS subgroup 1 of 2
[12] = Pooled Cilnidipine 10 mg and Cilnidipine 10 mg + Tadalafil 5 mg, baseline RCS subgroup 2 of 2
[13] = Pooled Cilnidipine 20 mg and Cilnidipine 20 mg + Tadalafil 5 mg, baseline RCS subgroup 1 of 2
[14] = Pooled Cilnidipine 20 mg and Cilnidipine 20 mg + Tadalafil 5 mg, baseline RCS subgroup 2 of 2
[15] = Pooled Cilnidipine, baseline RCS subgroup 1 of 2

SMILES: COCCOC(=O)C1=C(C)NC(C)=C(C(=O)OC/C=C/c2ccccc2)C1c1cccc([N+](=O)[O-])c1 (stereo not shown) [Cilnidipine, 1,4-dihydro-2,6-dimethyl,4-(3-nitrophenyl)-3,5-pyridinedicarboxylic acid 2-methoxyethyl (2 E)-3-phenyl-2-propenyl ester]
- Average Duration of weekly symptomatic RP attacks (participants with SSc-RP [1]; [4]): 3.0 min
- Average Duration of weekly symptomatic RP attacks, Max (participants with SSc-RP [1]; [4]): 30.5 min
- Average Duration of weekly symptomatic RP attacks, Q1 (participants with SSc-RP [1]; [4]): 3.00 min
- Average Duration of weekly symptomatic RP attacks, Q3 (participants with SSc-RP [1]; [4]): 30.45 min
- Average duration of weekly symptomatic RP attacks, Change from Baseline (participants with SSc-RP [1]; [4]): -10.3 min
- Average duration of weekly symptomatic RP attacks, Change from Baseline, Max (participants with SSc-RP [1]; [4]): 4.1 min
- Average duration of weekly symptomatic RP attacks, Change from Baseline, Q1 (participants with SSc-RP [1]; [4]): -10.33 min
- Average duration of weekly symptomatic RP attacks, Change from Baseline, Q3 (participants with SSc-RP [1]; [4]): 4.07 min
- Average duration of weekly symptomatic RP attacks, Percent Change from Baseline, Max (participants with SSc-RP [1]; [4]): 15.4%
- Average duration of weekly symptomatic RP attacks, Percent Change from Baseline, Min (participants with SSc-RP [1]; [4]): −77.5%
- Average duration of weekly symptomatic RP attacks, Percent Change from Baseline, Q1 (participants with SSc-RP [1]; [4]): −77.50%
- Average Duration of weekly symptomatic RP attacks (participants with SSc-RP [1]; [5]): 3.0 min
- Average Duration of weekly symptomatic RP attacks, Max (participants with SSc-RP [1]; [5]): 31.6 min
- Average Duration of weekly symptomatic RP attacks, Q1 (participants with SSc-RP [1]; [5]): 3.00 min
- Average Duration of weekly symptomatic RP attacks, Q3 (participants with SSc-RP [1]; [5]): 31.64 min
- Average duration of weekly symptomatic RP attacks, Change from Baseline (participants with SSc-RP [1]; [5]): -16.7 min
- Average duration of weekly symptomatic RP attacks, Change from Baseline, Max (participants with SSc-RP [1]; [5]): 4.1 min
- Average duration of weekly symptomatic RP attacks, Change from Baseline, Q1 (participants with SSc-RP [1]; [5]): -16.74 min
- Average duration of weekly symptomatic RP attacks, Change from Baseline, Q3 (participants with SSc-RP [1]; [5]): 4.07 min
- Average duration of weekly symptomatic RP attacks, Percent Change from Baseline, Max (participants with SSc-RP [1]; [5]): 15.4%
- Average duration of weekly symptomatic RP attacks, Percent Change from Baseline, Median (participants with SSc-RP [1]; [5]): −34.60%
- Average duration of weekly symptomatic RP attacks, Percent Change from Baseline, Min (participants with SSc-RP [1]; [5]): −77.5%
- Average duration of weekly symptomatic RP attacks, Percent Change from Baseline, Q1 (participants with SSc-RP [1]; [5]): −77.50%
- Average duration of weekly symptomatic RP attacks, Baseline, Max (participants with SSc-RP [1]; [6]): 48.4, 48.4 minutes
- Average duration of weekly symptomatic RP attacks, Baseline, Mean (participants with SSc-RP [1]; [6]): 48.38 min
- Average duration of weekly symptomatic RP attacks, Baseline, Median (participants with SSc-RP [1]; [6]): 48.38 min
- Average duration of weekly symptomatic RP attacks, Baseline, Min (participants with SSc-RP [1]; [6]): 48.4, 48.4 minutes
- Average duration of weekly symptomatic RP attacks, Baseline, Q1 (participants with SSc-RP [1]; [6]): 48.38, 48.38 minutes
- Average duration of weekly symptomatic RP attacks, Baseline, Q3 (participants with SSc-RP [1]; [6]): 48.38, 48.38 minutes
- Average duration of weekly symptomatic RP attacks, Baseline (participants with SSc-RP [1]; [7]): 13.3 min
- Average duration of weekly symptomatic RP attacks, Baseline, Max (participants with SSc-RP [1]; [7]): 26.4 min
- Average duration of weekly symptomatic RP attacks, Baseline, Mean (participants with SSc-RP [1]; [7]): 19.86 min
- Average duration of weekly symptomatic RP attacks, Baseline, Median (participants with SSc-RP [1]; [7]): 19.86 min
- Average duration of weekly symptomatic RP attacks, Baseline, Q1 (participants with SSc-RP [1]; [7]): 13.33 min
- Average duration of weekly symptomatic RP attacks, Baseline, Q3 (participants with SSc-RP [1]; [7]): 26.39 min
- Average duration of weekly symptomatic RP attacks, Baseline (participants with SSc-RP [1]; [8]): 13.3 min
- Average duration of weekly symptomatic RP attacks, Baseline, Max (participants with SSc-RP [1]; [8]): 48.4 min
- Average duration of weekly symptomatic RP attacks, Baseline, Mean (participants with SSc-RP [1]; [8]): 29.37 min
- Average duration of weekly symptomatic RP attacks, Baseline, Median (participants with SSc-RP [1]; [8]): 26.39 min
- Average duration of weekly symptomatic RP attacks, Baseline, Q1 (participants with SSc-RP [1]; [8]): 13.33 min
- Average duration of weekly symptomatic RP attacks, Baseline, Q3 (participants with SSc-RP [1]; [8]): 48.38 min
- Average Severity of Weekly RP Attacks (All Attacks): Baseline, Mean (participants with SSc-RP [2]; [9]): 3.03
- Average Severity of Weekly RP Attacks (All Attacks): Baseline, Median (participants with SSc-RP [2]; [9]): 3.03
- Average Severity of Weekly RP Attacks (All Attacks): Average Severity, Mean (participants with SSc-RP [2]; [10]): 2.30
- Average Severity of Weekly RP Attacks (All Attacks): Average Severity, Median (participants with SSc-RP [2]; [10]): 2.30
- Average Severity of Weekly RP Attacks (All Attacks): Baseline, Mean (participants with SSc-RP [2]; [10]): 3.37
- Average Severity of Weekly RP Attacks (All Attacks): Baseline, Median (participants with SSc-RP [2]; [10]): 3.37
- Average Severity of Weekly RP Attacks (All Attacks): Average Severity, Mean (participants with SSc-RP [2]; [11]): 2.97
- Average Severity of Weekly RP Attacks (All Attacks): Average Severity, Median (participants with SSc-RP [2]; [11]): 2.97
- Average Severity of Weekly RP Attacks (All Attacks): Baseline, Mean (participants with SSc-RP [2]; [11]): 4.33
- Average Severity of Weekly RP Attacks (All Attacks): Baseline, Median (participants with SSc-RP [2]; [11]): 4.33
- Average Severity of Weekly RP Attacks (All Attacks): Average Severity, Mean (participants with SSc-RP [2]; [12]): 4.90
- Average Severity of Weekly RP Attacks (All Attacks): Average Severity, Median (participants with SSc-RP [2]; [12]): 4.90
- Average Severity of Weekly RP Attacks (All Attacks): Baseline, Mean (participants with SSc-RP [2]; [12]): 6.22
- Average Severity of Weekly RP Attacks (All Attacks): Baseline, Median (participants with SSc-RP [2]; [12]): 6.22
- Average Severity of Weekly RP Attacks (All Attacks): Average Severity, Mean (participants with SSc-RP [2]; [13]): 2.78
- Average Severity of Weekly RP Attacks (All Attacks): Average Severity, Median (participants with SSc-RP [2]; [13]): 2.40
- Average Severity of Weekly RP Attacks (All Attacks): Baseline, Median (participants with SSc-RP [2]; [13]): 4.12
- Average Severity of Weekly RP Attacks (All Attacks): Baseline, Mean (participants with SSc-RP [2]; [14]): 6.59
- Average Severity of Weekly RP Attacks (All Attacks): Baseline, Median (participants with SSc-RP [2]; [14]): 6.59
- Average Severity of Weekly RP Attacks (All Attacks): Average Severity, Median (participants with SSc-RP [2]; [15]): 2.40
- Average Severity of Weekly RP Attacks (All Attacks): Baseline, Mean (participants with SSc-RP [2]; [15]): 3.26
- Average Severity of Weekly RP Attacks (All Attacks): Baseline, Median (participants with SSc-RP [2]; [15]): 3.03
- time to achieve maximal plasma concentrations (Tmax) [3]: about 2 hours
